These results are taken from ChEMBL document CHEMBL1201862, “PubChem BioAssay data set” (2004).

The structures appear in SMILES notation.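 How tested: cells in 96-well plates exposed to compound for 48 hours at five concentrations. Abbreviation: GI50, concentration required for 50% inhibition of growth.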 Activity calls are given as the source filed them. No stated cut-off is given here; in the data, active = GI50 up to about 1.1 µM and inactive = higher. Some results are limits rather than exact numbers.

Experiment in all cases: NCI tumour cell line growth inhibition, 48 h
The subject of test [1] is IGROV-1.
The test system of test [2] is PC-3.
Test [3] deals with DMS-114.
Test [4] concerns BT-549.
The test system of test [5] is SK-OV-3.
The subject of test [6] is HOP-92.
The test system of test [7] is NCI-H226.
Test [8] relates to COLO 205.
Test [9] deals with OVCAR-5.
The subject of test [10] is U-251.
Test [11] relates to CCRF-CEM.
The subject of test [12] is HOP-62.
Test [13] concerns MDA-N.
Test [14] relates to SN12C.
For test [15], the system named is NCI-H522.
For test [16], the system named is SNB-75.
The subject of test [17] is DU-145.
Test [18] concerns HCT-15.
Test [19] has as its system Malme-3M.
Test [20] deals with T47D.

Consider `O=C1c2c(nc3ccccc3c2-c2ccccc2)CN1Nc1ccccn1`, for which the GI50 in test [1] was 81.8 µM (inactive); in [2], > 89.7 µM (inactive); in test [3] it was 27.5 µM (inactive); in test [4], > 79.1 µM (inactive); in test [5] it was 98.2 µM (inactive); in test [6] it was 38.4 µM (inactive). The GI50 in [7] is 61.1 µM (inactive); in test [8] it was > 100 µM (inactive); in test [9], > 100 µM (inactive); in test [10], 66.7 µM (inactive); in test [11] it was 79.1 µM (inactive); in [12], 72.6 µM (inactive). The GI50 in test [13] is > 100 µM (inactive); in [14], 53.6 µM (inactive); in test [15], > 78.3 µM (inactive); in test [16] it was 34.7 µM (inactive); in [17], 67.9 µM (inactive); in [18] it was over 75.5 µM. In addition, the GI50 is 78.3 µM (inactive) in test [19] and > 68.4 µM (inactive) in [20].
Regarding `CN1CC[C@@H](c2c(O)cc(O)c3c(=O)cc(-c4ccccc4Cl)oc23)[C@@H](O)C1`, the GI50 in test [1] is 0.0304 µM (active); in test [2] it was 0.0385 µM (active); in test [3], 0.113 µM (active); in test [4], 0.0395 µM (active); in test [5], 0.608 µM (active); in test [6], 0.0556 µM (active). Besides, the GI50 in test [7] was 0.0357 µM (active); in test [8], 0.034 µM (active); in test [9] it was 0.0384 µM (active); in test [10] it was 0.0385 µM (active); in [11] it was 0.0468 µM (active); in [12], 0.0324 µM (active). Further, the GI50 was 0.0471 µM (active) in test [14]; 0.0655 µM (active) in test [15]; 0.0251 µM (active) in test [16]; 0.0411 µM (active) in test [17]; 0.0399 µM in test [18]; 0.124 µM (active) in test [19].
Turning to `COc1cc2c(cc1OC)C(Cl)C(c1ccc(F)cc1)=C2Cl` (configuration not stated), the GI50 in test [1] is 17.4 µM (inactive); in [2], 12.4 µM (inactive); in test [3], 13.2 µM (inactive); in test [4], 4.79 µM (inactive); in test [5] it was 20.1 µM (inactive); in [6] it was 9.08 µM (inactive). The GI50 in [7] is 22.7 µM (inactive); in [8], 16.6 µM (inactive); in test [9] it was 16.6 µM (inactive); in test [10] it was 13.1 µM (inactive); in [11], 5.77 µM (inactive); in [12], 16.5 µM (inactive). For the same compound, the GI50 in test [14] was 12.8 µM (inactive); in test [15], 7.73 µM (inactive); in [16], 14.6 µM (inactive); in test [17], 14.9 µM (inactive); in [18] it was 12.9 µM; in test [19], 13.2 µM (inactive). In addition, the GI50 in [20] is 10 µM (inactive).
